Data taken from US20040176471A1, “Novel chalcone derivatives and pharmaceutical compositions comprising the same” (KAOHSIUNG MEDICAL UNIVERSITY, priority 2003, published 2004).
Where two headings read alike, the source gives them in different places.

Assays:
rat neutrophils [1] = details: rat neutrophils stimulated with fMLP; concentration of 3 mg/mL; cited from earlier work
[2] = tested on: rat peritoneal mast cells; test: Mast cell degranulation stimulated with compound 48/80 (release of β-glucuronidase and histamine); format: cell-based; details: for IC50: Mast cell, compound 48/80 (10 μg/mL); for % of inhibition of Histamine release at the highest concentration / % of inhibition of β-Glucuronidase release at the highest concentration: compound 48/80, at the highest concentration (bound given in the source)
Procedure: Heparinized Tyrode's solution was injected into the peritoneal cavity of exsanguinated rat (Sprague-Dawley, 250-300 g, 10-12 weeks old). […] Cell pellets were washed and suspended in Tyrode's solution with 0.1% BSA to 1×10^6 cells/mL. Cell suspension was then preincubated at 37° C. with DMSO or a tested compound for 5 min. The final volume of DMSO in the reaction mixture was≦0.5%. […] After treatment of the cell suspension with Triton X-100, the total content of β-glucuronidase and histamine was measured, and the percentage release was calculated. In the experiment, Mepacrine was used as a positive control.

rat neutrophils [3] = test: Superoxide anion generation in neutrophils stimulated with fMLP/CB or PMA (cytochrome c reduction); format: cell-based; details: for inhibition / IC50: Neutrophil; for inhibition / IC50 / % of inhibition of superoxide anion generation at the highest concentration, fMLP/CB: rat neutrophils; for inhibition / % of inhibition of superoxide anion generation at the highest concentration, fMLP/CB: at the highest concentration (bound given in the source)
Procedure: Superoxide anion generation was measured in terms of superoxide dismutase-inhibitable cytochrome c reduction (M. Market et al. (1984), Methods Enzymol., 105, 358). Neutrophil suspension was preincubated with DMSO or a tested compound for 3 min, and then superoxide dismutase or Hank's balanced salt solution (HBSS) was added into the blank and test wells, respectively. The final volume of DMSO in the reaction mixture was≦0.5%. After addition of cytochrome c, reaction was initiated by challenge with formyl-Met-Leu-Phe (fMLP) (0.3 μM)/cytochalasin B (CB) (5 μg/mL) or phorbol myristate acetate (PMA) (3 nM). Thirty minutes later, the reaction was terminated by centrifugation and the absorbance changes of supernatant were monitored at 550 nm in a microplate reader. In the experiment, Trifluoperazine was used as a positive control

rat neutrophils [4] = test: Neutrophil degranulation stimulated with fMLP/CB (release of β-glucuronidase and lysozyme); format: cell-based; details: for IC50: Neutrophil, fMLP (1 μM)/CB (5 μg/mL); for IC50 / % of inhibition of Lysozyme release at the highest concentration / % of inhibition of β-Glucuronidase release at the highest concentration: rat neutrophils; for % of inhibition of Lysozyme release at the highest concentration / % of inhibition of β-Glucuronidase release at the highest concentration: at the highest concentration (bound given in the source)
Procedure: Blood was withdrawn from rat (Sprague-Dawley, 250-300 g, 10-12 weeks old) and mixed with EDTA. […] Cell suspension was preincubated at 37° C. with DMSO or drugs for 10 min, and then challenged with fMLP (1 μM)/CB (5 μg/mL). The final volume of DMSO in the reaction mixture was≦0.5%. […] After treatment of the cell suspension with Triton X-100, the total content of lysozyme and β-glucuronidase was measured and the percentage release was calculated. In the experiment, Trifluoperazine was used as a positive control.

N9 cells = test: NO production (nitrite accumulation, Griess reaction) in LPS/IFN-γ-stimulated microglial cells; format: cell-based, murine; details: for IC50: LPS (10 ng/mL)/IFN-γ (10 unit/mL), 24 hrs, read-out: IC50, accumulation of NO2− in culture media, N9 cells; for % of inhibition of NO2− accumulation at the highest concentration, N9 cells: LPS/IFN-γ, at the highest concentration (bound given in the source)
Procedure: Cells of murine microglial cell line N9 (kindly provided by Dr. P. Ricciardi-Castagnoli, CNR Cellular and Molecular Pharmacology Center, Italy) (S. B. Corradin et al. (1993), Glia, 7, 255-262) were suspended in Iscove's Modified Dulbecco's medium containing 5% heat-inactivated FCS and antibiotics and then plated into 96-well tissue-culture plates at 8×10^4 cells/200 μL per well. The cells were treated with DMSO or a tested compound at 37° C. for 1 hr, followed by stimulation with LPS (10 ng/mL)/IFN-γ (10 unit/mL) for 24 hrs. Thereafter, the medium in each well was collected and stored at −70° C. until use. The final volume of DMSO in the reaction mixture was<0.5%
(§1) The production of NO in cell medium was determined by measuring the content of nitrite based on the Griess reaction (L. Mingghetti et at (1997), Glia, 19, 152-160). Briefly, 40 μL of 5 mM sulfanilamide, 10 μL of 2 M HCl, and 20 μL of 40 mM naphthylethylenediamine were added into 150 μL culture medium in sequence. After 10 min of incubation at room temperature, absorbance was measured at 550 nm in a microplate reader. A standard nitrite curve was generated in the same fashion, using NaNO2.

RAW 264.7 cells = test: NO production (nitrite accumulation, Griess reaction) in LPS-stimulated macrophage-like cells; format: cell-based, mouse; details: for suppression of LPS-induced NO production in RAW 264.7 cells (in words) / IC50: LPS (1 μg/mL), 24 hrs; for IC50: read-out: IC50, accumulation of NO2− in culture media, RAW 264.7 cells; for % of inhibition of NO2− accumulation at the highest concentration, RAW 264.7 cells: LPS, at the highest concentration (bound given in the source)
Procedure: RAW 264.7 mouse macrophage-like cell line (American Type Culture Collection (ATCC), PO Box 1549, Manassas, Va. 20108 USA) was plated in 96 well tissue-culture plates in Dulbecco's Modified Eagle Medium (DMEM) supplemented with 10% fetal calf serum (FCS), 100 units/ml of penicillin and streptomycin at 2×10^5 cells/200 μL per well. Cells were allowed to adhere overnight. The cells were treated with DMSO or a tested compound at 37° C. for 1 hr. followed by stimulation with 1 μg/mL of LPS (Escherichia coli, serotype 0111:B4) for 24 hrs. Thereafter, the medium in each well was collected and stored at −70° C. until use. The final volume of DMSO in the reaction mixture was≦0.5%.
as §1

[5] = read-out: IG50, release of Histamine
[6] = read-out: IG50, release of β-Glucuronidase
[7] = PMA (3 nM), read-out: IC50, superoxide anion generation, PMA
[8] = fMLP (0.3 μM)/CB (5 μg/mL), read-out: IC50, superoxide anion generation, fMLP/CB
[9] = read-out: IC50, release of Lysozyme
[10] = read-out: IC50, release of β-Glucuronidase

Structure (SMILES) | IC50 [2, 5] [µM] | IC50 [2, 6] [µM] | IC50 (rat neutrophils [3]; [7]) [µM] | IC50 (rat neutrophils [3]; [8]) [µM] | IC50 (rat neutrophils [4]; [9]) [µM] | IC50 (rat neutrophils [4]; [10]) [µM] | IC50 (N9 cells; Mus musculus, N9) [µM] | melting point [°C] | IC50 (RAW 264.7 cells; Mus musculus, RAW264.7) [µM] | % of inhibition of Histamine release at the highest concentration [2] [%] | % of inhibition of β-Glucuronidase release at the highest concentration [2] [%] | inhibition (rat neutrophils [3]; PMA (3 nM)) [%] | % of inhibition of NO2− accumulation at the highest concentration, N9 cells (N9 cells) [%] | % of inhibition of NO2− accumulation at the highest concentration, RAW 264.7 cells (RAW 264.7 cells) [%] | other results
CC(C)=CCc1cc(C(=O)/C=C/c2ccc(O)c(O)c2)c(O)cc1O [Brousschalcone A] |  |  |  |  |  |  |  |  |  |  |  |  |  |  | % inhibition of release of lysozyme (rat neutrophils [1]): 68.0±13.4%; % inhibition of release of β-glucuronidase (rat neutrophils [1]): 51.1±12.6%
COc1ccc(OC)c(C(=O)/C=C/c2ccc(O)cc2)c1 [Compound 1, 2′,5′-Dimethoxy-4-hydroxychalcone] | > 30 | > 30 | > 30 | 19.5 ± 3.5 | 28.3 ± 1.9 | 20.6 ± 2 | 17.8 ± 0.2 | 127 to 128 | 14.6 ± 0.1 | 10.0 ± 5.1 | 8.3 ± 2.3 | 36.3 |  |  | suppression of LPS-induced NO production in RAW 264.7 cells (in words) (RAW 264.7 cells): suppressed
COc1ccc(OC)c(C(=O)/C=C/c2ccc(Br)cc2)c1 [Compound 2, 4-Bromo-2′,5′-dimethoxychalcone] | > 30 | > 30 | > 30 | 8 ± 2.4 | 5.7 ± 0.3 | 5.6 ± 0.3 | > 10 | 85 to 87 | > 10 | 21.7 ± 1.5 | 28.6 ± 3.4 | 22.9 | −5.6 ± 1.1 | 8.9 ± 4.0 | 
COc1ccc(OC)c(C(=O)/C=C/c2ccc(Cl)c(Cl)c2)c1 [Compound 3, 3,4Dichloro-2′,5′-dimethoxychalcone] | > 30 | > 30 | > 30 | 12.9 ± 0.4 | 5.1 ± 0.1 | 5 ± 0.3 | > 3 | 121 to 123 | > 3 | 35.2 ± 1.0 | 44.3 ± 2.3 | -27.1 | 4.3 ± 3.1 | 2.0 ± 3.1 | 
COC(=O)[C@@H](N)CCCNC(=N)N[N+](=O)[O-] [L-NAME, N^ω-nitro-L-arginine methyl ether, reference compound] |  |  |  |  |  |  |  |  |  |  |  |  |  |  | IC50 (N9 cells; positive control): 630 ± 10 µM; IC50 (RAW 264.7 cells; positive control): 510 ± 20 µM

Further lines, with some results ahead:

IC50 [2, 5] [µM] | IC50 [2, 6] [µM] | IC50 (rat neutrophils [3]; [7]) [µM] | IC50 (rat neutrophils [3]; [8]) [µM] | IC50 (rat neutrophils [4]; [9]) [µM] | IC50 (rat neutrophils [4]; [10]) [µM] | IC50 (N9 cells; Mus musculus, N9) [µM] | melting point [°C] | IC50 (RAW 264.7 cells; Mus musculus, RAW264.7) [µM] | Structure (SMILES) | % of inhibition of Histamine release at the highest concentration [2] [%] | % of inhibition of β-Glucuronidase release at the highest concentration [2] [%] | inhibition (rat neutrophils [3]; PMA (3 nM)) [%] | % of inhibition of NO2− accumulation at the highest concentration, N9 cells (N9 cells) [%] | % of inhibition of NO2− accumulation at the highest concentration, RAW 264.7 cells (RAW 264.7 cells) [%] | other results
 |  | > 10 | 0.6 ± 0.2 |  |  | > 1 | 171 to 174 | > 1 | O=C(/C=C/c1ccc(Cl)c(Cl)c1)c1cc(O)ccc1O [Compound 4, 3,4-Dichloro-2′,5′-dihydroxychalcone] |  |  | 21.9 | −10.3 ± 1.5 | −4.9 ± 1.9 | inhibitory effect on fMLP/CB-induced superoxide anion generation (in words) (rat neutrophils [3]): more potent than the positive control, trifluoperazine
> 30 | > 30 | > 30 | > 30 | > 30 | > 30 | 3.7 ± 0.1 | 152 to 153 | 4.9 ± 0.3 | CCOc1ccc(OCC)c(C(=O)/C=C/c2ccc(Cl)c(Cl)c2)c1 [Compound 5, 3,4-Dichloro-2′,5′-diethoxychalcone] | 12.9 ± 7.9 | 5.5 ± 4.7 | 13.2 |  |  | inhibitory effect on fMLP/CB-induced superoxide anion generation (in words) (rat neutrophils [3]): not to have significant inhibitory effects; % of inhibition of superoxide anion generation at the highest concentration, fMLP/CB (rat neutrophils [3]): 32.4 ± 12.2%; inhibitory effect on neutrophil degranulation (in words) (rat neutrophils [4]; fMLP/CB): no significant inhibitory effects; % of inhibition of Lysozyme release at the highest concentration (rat neutrophils [4]; fMLP/CB): 27.1 ± 5.0%; % of inhibition of β-Glucuronidase release at the highest concentration (rat neutrophils [4]; fMLP/CB): 30.6 ± 4.1%; suppression of LPS-induced NO production in RAW 264.7 cells (in words) (RAW 264.7 cells): suppressed
> 30 | > 30 | > 30 | 17.7 ± 7.2 | 6.6 ± 0.4 | 6.2 ± 0.3 | > 30 | 97 to 99 | > 10 | CCCOc1ccc(O)c(C(=O)/C=C/c2ccc(Cl)c(Cl)c2)c1 [Compound 6, 3,4-Dichloro-2′-hydroxy-5′-propoxy-chalcone] | 47.6 ± 2.4 | 49.2 ± 2.0 | 49.9 | 26.4 ± 2.3 | 7.5 ± 0.4 | 
 |  | > 1 | > 1 |  |  | > 3 | 156 to 157 | > 3 | O=C(/C=C/c1ccsc1)c1cc(O)ccc1O [Compound 7, 2′,5′-Dihydroxy-3-thienylchalcone] |  |  | 23.5 | 10.6 ± 8.2 | 9.7 ± 2.9 | % of inhibition of superoxide anion generation at the highest concentration, fMLP/CB (rat neutrophils [3]): 43.4 ± 6.1%
> 30 | > 30 | > 30 | 24.3 ± 3.2 | > 30 | > 30 | > 30 | 95 to 97 | > 30 | O=C(/C=C/c1cccs1)c1cccs1 [Compound 8, 2′,2-Dithienylchalcone] | 20.9 ± 1.2 | 17.3 ± 2.6 | 35.6 | 15.2 ± 0.5 | 12.5 ± 2.2 | % of inhibition of Lysozyme release at the highest concentration (rat neutrophils [4]; fMLP/CB): 30.0 ± 1.4%; % of inhibition of β-Glucuronidase release at the highest concentration (rat neutrophils [4]; fMLP/CB): 46.6 ± 0.7%
48.5 ± 3.8 | 32.2 ± 3.6 |  |  |  |  |  |  |  | CCN(CC)CCCC(C)Nc1c2ccc(Cl)cc2nc2ccc(OC)cc12 (stereo not drawn) [Mepacrine, reference compound] |  |  |  |  |  | 
 |  | 9.7 ± 1.1 | 12.9 ± 1 | 18.3 ± 0.9 | 18.9 ± 2.1 |  |  |  | CN1CCN(CCCN2c3ccccc3Sc3ccc(C(F)(F)F)cc32)CC1 [Trifluoperazine, reference compound] |  |  |  |  |  | 
